The values that follow are results of earlier work, collected in patent publication US9884123B2, “Ligand-targeted molecules and methods thereof” (INVICTUS ONCOLOGY PVT. LTD., priority 2012, dated 2018).

Tested on in one data set: not given
The conditions noted are these: Table 1, numeric value; test system not given; read-out: IC50.
On to `Cc1c[nH]c2c1[C@@]13C[C@@H]1CN(C(=O)c1cc4cc(NC(=O)c5cc6ccccc6o5)ccc4[nH]1)C3=CC2=O` [Adozelesin (DC1), Adozelesin], for which the IC50 is 0.02 nM.

Staying with this data set, now noted: Table 1, order of magnitude in words; test system not given.
Regarding `CC[C@@H](/C=C(/C)[C@H]1C[C@H](OC)C[C@@H](O)C(C)(C)[C@]2(O)O[C@H](C[C@H](OC)[C@@H](O)C(=O)O1)C[C@H](OC)[C@@H]2O)CO` [Peloruside A], the IC50 result was “Low nM”.
On to Auristatins E and F, for which the IC50 entry was “nM to”.
Turning to `C=C1C[C@H](C)C[C@@H]2CC=C[C@@H](C/C=C\C(=O)O[C@H]([C@@H](O)/C=C/[C@@H]3CC(C)=CCO3)C[C@@H]3O[C@H]3[C@@H](O)C1)O2` [Laulimalide], the IC50 entry was “Low nM”.
Take Calicheamicins: the IC50 result was “Picomolar”.
`COc1cc([C@@H]2c3cc4c(cc3[C@@H](O[C@@H]3O[C@@H]5CO[C@@H](c6cccs6)O[C@H]5[C@H](O)[C@H]3O)[C@H]3COC(=O)[C@H]23)OCO4)cc(OC)c1O` [Teniposide]: the IC50 entry is recorded as “Low nM”.
Take `CCCCCCC[C@H](O)CC[C@H](O)[C@H]1CC[C@H]([C@H]2CC[C@H]([C@H](O)CCCCCCCCCC[C@@H](O)CC3=C[C@H](C)OC3=O)O2)O1` [27-hydroxybullatacin]: the IC50 entry is “Low pM”.
Regarding “Maytansinoid [Maytansinoid (DM1 and DM4)]”, the IC50 result is “nM to”.
As to `COc1c(O)c2c(c3cc(C(=O)N4CCc5c4c(O)c(OC)c4[nH]c(C(=O)N6CC7CC78C6=CC(=O)c6[nH]cc(C)c68)cc54)[nH]c13)CCN2C(N)=O` (stereo not shown) [CC-1065], the IC50 entry is “nM to”.
`CC(=O)O[C@@H](C)/C=C\C(=O)N[C@@H]1C[C@H](C)[C@H](C/C=C(C)/C=C/[C@H]2OC(C)(C)C[C@@]3(CO3)[C@@H]2O)O[C@@H]1C` [Meamycin]: the IC50 entry is listed as “picomolar”.
With `COc1cccc2c1C(=O)c1c(O)c3c(c(O)c1C2=O)C[C@@](O)(C(=O)CO)C[C@@H]3O[C@H]1C[C@H](N)[C@H](O)[C@H](C)O1` [Doxorubucin], the IC50 result is given as “High nM”.

For a further data set, the system named is MDR cells.
Conditions: not given
For the compound Epothilones A and B, the “Remarks: active against MDR cells too” value is on record as “Active”.
`CC(=O)O[C@@H](C)/C=C\C(=O)N[C@@H]1C[C@H](C)[C@H](C/C=C(C)/C=C/[C@H]2OC(C)(C)C[C@@]3(CO3)[C@@H]2O)O[C@@H]1C` [Meamycin]: the “Remarks: active against MDR cells too” value is on record as “Active”.

One may read the IC50 as the concentration that inhibits the measured activity by half.
